Measured values published in PubChem BioAssay (NCI).
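Five concentrations, 48 hours, 96-well plates. Here, GI50 denotes the concentration required for 50% inhibition of growth. TGI marks complete inhibition of growth.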

Columns and labels:
Assay in all cases: NCI tumour cell line growth inhibition, 48 h
786-0 renal = tested on: 786-0 renal
A498 renal = tested on: A498 renal
A549 NSCLC = tested on: A549 NSCLC
BT-549 breast = tested on: BT-549 breast
CAKI-1 renal = tested on: CAKI-1 renal
DU-145 prostate = tested on: DU-145 prostate
EKVX NSCLC = tested on: EKVX NSCLC
HCC-2998 colon = tested on: HCC-2998 colon
HCT-116 colon = tested on: HCT-116 colon
HCT-15 colon = tested on: HCT-15 colon
HOP-62 NSCLC = tested on: HOP-62 NSCLC
HS 578T breast = tested on: HS 578T breast
IGROV1 ovarian = tested on: IGROV1 ovarian
K-562 leukemia = tested on: K-562 leukemia
KM12 colon = tested on: KM12 colon
LOX IMVI melanoma = tested on: LOX IMVI melanoma
MALME-3M melanoma = tested on: MALME-3M melanoma
MCF7 breast = tested on: MCF7 breast
MDA-MB-231 breast = tested on: MDA-MB-231 breast
MDA-MB-435 = tested on: MDA-MB-435
MDA-MB-468 breast = tested on: MDA-MB-468 breast
NCI-H226 lung = tested on: NCI-H226 lung
NCI-H23 lung = tested on: NCI-H23 lung
NCI-H522 lung = tested on: NCI-H522 lung
NCI/ADR-RES ovarian = tested on: NCI/ADR-RES ovarian
OVCAR-3 ovarian = tested on: OVCAR-3 ovarian
OVCAR-5 ovarian = tested on: OVCAR-5 ovarian
PC-3 prostate = tested on: PC-3 prostate
SF-268 CNS = tested on: SF-268 CNS
SF-295 CNS = tested on: SF-295 CNS
SF-539 CNS = tested on: SF-539 CNS
SK-MEL-2 melanoma = tested on: SK-MEL-2 melanoma
SK-MEL-5 melanoma = tested on: SK-MEL-5 melanoma
SK-OV-3 ovarian = tested on: SK-OV-3 ovarian
SNB-19 CNS = tested on: SNB-19 CNS
SNB-75 CNS = tested on: SNB-75 CNS
SW-620 colon = tested on: SW-620 colon
T-47D breast = tested on: T-47D breast
TK-10 renal = tested on: TK-10 renal
U251 CNS = tested on: U251 CNS
UACC-257 melanoma = tested on: UACC-257 melanoma
UO-31 renal = tested on: UO-31 renal
ACHN renal = tested on: ACHN renal
CCRF-CEM leukemia = tested on: CCRF-CEM leukemia
COLO 205 colon = tested on: COLO 205 colon
HL-60(TB) leukemia = tested on: HL-60(TB) leukemia
HOP-92 NSCLC = tested on: HOP-92 NSCLC
HT29 colon = tested on: HT29 colon
MOLT-4 leukemia = tested on: MOLT-4 leukemia
NCI-H460 lung = tested on: NCI-H460 lung
OVCAR-4 ovarian = tested on: OVCAR-4 ovarian
OVCAR-8 ovarian = tested on: OVCAR-8 ovarian
RPMI-8226 leukemia = tested on: RPMI-8226 leukemia
RXF 393 renal = tested on: RXF 393 renal
SK-MEL-28 melanoma = tested on: SK-MEL-28 melanoma
SN12C renal = tested on: SN12C renal
SR leukemia = tested on: SR leukemia
UACC-62 melanoma = tested on: UACC-62 melanoma

O=C(O)CCN1C(=O)/C(=C/C=C/c2ccc([N+](=O)[O-])o2)SC1=S
GI50 (786-0 renal): 1.63 µM
GI50 (A498 renal): 20 µM
TGI (A498 renal): 34.3 µM
TGI (A549 NSCLC): 13.5 µM
GI50 (BT-549 breast): 1.13 µM
TGI (BT-549 breast): 2.38 µM
GI50 (CAKI-1 renal): 1.77 µM
TGI (CAKI-1 renal): 3.17 µM
GI50 (DU-145 prostate): 3.33 µM
TGI (DU-145 prostate): 12.2 µM
GI50 (EKVX NSCLC): 1.41 µM
GI50 (HCC-2998 colon): 1.65 µM
TGI (HCC-2998 colon): 3.06 µM
GI50 (HCT-116 colon): 0.386 µM
TGI (HCT-116 colon): 1.66 µM
GI50 (HCT-15 colon): 0.43 µM
GI50 (HOP-62 NSCLC): 1.86 µM
TGI (HOP-62 NSCLC): 3.92 µM
GI50 (HS 578T breast): 1.65 µM
TGI (HS 578T breast): 6.71 µM
GI50 (IGROV1 ovarian): 1.58 µM
GI50 (K-562 leukemia): 0.378 µM
TGI (K-562 leukemia): 6.07 µM
TGI (KM12 colon): 2.71 µM
GI50 (LOX IMVI melanoma): 0.508 µM
GI50 (MALME-3M melanoma): 0.748 µM
TGI (MALME-3M melanoma): 2.12 µM
GI50 (MCF7 breast): 0.401 µM
GI50 (MDA-MB-231 breast): 1.27 µM
TGI (MDA-MB-231 breast): 2.58 µM
GI50 (MDA-MB-435): 1.53 µM
TGI (MDA-MB-435): 3.17 µM
GI50 (MDA-MB-468 breast): 1.13 µM
TGI (MDA-MB-468 breast): 2.49 µM
GI50 (NCI-H226 lung): 1.4 µM
TGI (NCI-H23 lung): 3.08 µM
GI50 (NCI-H522 lung): 0.379 µM
TGI (NCI-H522 lung): 1.46 µM
GI50 (NCI/ADR-RES ovarian): 2.01 µM
TGI (NCI/ADR-RES ovarian): 10.1 µM
GI50 (OVCAR-3 ovarian): 1.17 µM
TGI (OVCAR-3 ovarian): 2.57 µM
GI50 (OVCAR-5 ovarian): 1.8 µM
TGI (OVCAR-5 ovarian): 3.34 µM
GI50 (PC-3 prostate): 1.93 µM
TGI (PC-3 prostate): 6.09 µM
GI50 (SF-268 CNS): 1.68 µM
TGI (SF-268 CNS): 3.95 µM
GI50 (SF-295 CNS): 1.68 µM
TGI (SF-295 CNS): 3.24 µM
GI50 (SF-539 CNS): 1.09 µM
TGI (SF-539 CNS): 2.3 µM
GI50 (SK-MEL-2 melanoma): 1.16 µM
GI50 (SK-MEL-5 melanoma): 1.38 µM
TGI (SK-MEL-5 melanoma): 2.68 µM
GI50 (SK-OV-3 ovarian): 3.98 µM
GI50 (SNB-19 CNS): 2.09 µM
GI50 (SNB-75 CNS): 1.57 µM
TGI (SNB-75 CNS): 10.7 µM
GI50 (SW-620 colon): 1.26 µM
TGI (SW-620 colon): 2.81 µM
GI50 (T-47D breast): 1.41 µM
TGI (T-47D breast): 4.17 µM
GI50 (TK-10 renal): 1.81 µM
TGI (TK-10 renal): 3.35 µM
GI50 (U251 CNS): 0.849 µM
TGI (UACC-257 melanoma): 3.55 µM
GI50 (UO-31 renal): 1.26 µM
TGI (UO-31 renal): 2.53 µM

COC(=O)C[C@](O)(CCC(C)C)C(=O)O[C@H]1C(OC)=C[C@@]23CCCN2CCc2cc4c(cc2[C@@H]13)OCO4
TGI (786-0 renal): > 12.3 µM
TGI (A498 renal): > 9.75 µM
TGI (A549 NSCLC): > 13.6 µM
GI50 (ACHN renal): 3.59 µM
TGI (ACHN renal): > 10.9 µM
TGI (BT-549 breast): > 10.1 µM
TGI (CAKI-1 renal): > 25.1 µM
GI50 (CCRF-CEM leukemia): 4.62 µM
TGI (CCRF-CEM leukemia): > 11.2 µM
TGI (COLO 205 colon): > 13.8 µM
TGI (DU-145 prostate): > 13.8 µM
TGI (EKVX NSCLC): > 16.8 µM
GI50 (HCC-2998 colon): 2.58 µM
GI50 (HCT-116 colon): 16.8 µM
TGI (HCT-116 colon): > 40.5 µM
GI50 (HCT-15 colon): 4.08 µM
TGI (HCT-15 colon): > 9.64 µM
GI50 (HL-60(TB) leukemia): 2.4 µM
TGI (HOP-62 NSCLC): > 21.9 µM
TGI (HOP-92 NSCLC): > 11 µM
TGI (HS 578T breast): > 11.1 µM
GI50 (HT29 colon): 4.69 µM
TGI (HT29 colon): > 14 µM
TGI (IGROV1 ovarian): > 15.1 µM
GI50 (K-562 leukemia): 2.73 µM
TGI (K-562 leukemia): > 40.5 µM
TGI (KM12 colon): > 15.6 µM
GI50 (LOX IMVI melanoma): 2.54 µM
GI50 (MALME-3M melanoma): 3.62 µM
TGI (MALME-3M melanoma): > 8.33 µM
GI50 (MCF7 breast): 1.37 µM
TGI (MDA-MB-231 breast): > 17.8 µM
TGI (MDA-MB-435): > 14.4 µM
GI50 (MDA-MB-468 breast): 1.8 µM
TGI (MDA-MB-468 breast): > 8.31 µM
GI50 (MOLT-4 leukemia): 10.5 µM
TGI (MOLT-4 leukemia): > 40.5 µM
GI50 (NCI-H226 lung): 2.57 µM
TGI (NCI-H226 lung): > 10.2 µM
TGI (NCI-H23 lung): > 9.5 µM
GI50 (NCI-H460 lung): 1.51 µM
GI50 (NCI-H522 lung): 3.3 µM
TGI (NCI-H522 lung): > 8.77 µM
GI50 (NCI/ADR-RES ovarian): 1.5 µM
TGI (NCI/ADR-RES ovarian): 12 µM
TGI (OVCAR-3 ovarian): > 12.9 µM
TGI (OVCAR-4 ovarian): > 15.5 µM
TGI (OVCAR-5 ovarian): > 15.7 µM
TGI (OVCAR-8 ovarian): > 13.8 µM
TGI (PC-3 prostate): > 13.4 µM
TGI (RPMI-8226 leukemia): > 8.64 µM
GI50 (RXF 393 renal): 2.65 µM
TGI (SF-268 CNS): > 19.6 µM
TGI (SF-295 CNS): > 11.2 µM
GI50 (SF-539 CNS): 3.17 µM
TGI (SF-539 CNS): > 8.07 µM
GI50 (SK-MEL-2 melanoma): 1.62 µM
TGI (SK-MEL-2 melanoma): 8.71 µM
TGI (SK-MEL-28 melanoma): > 10.6 µM
TGI (SK-OV-3 ovarian): > 31 µM
TGI (SN12C renal): > 19.3 µM
GI50 (SNB-19 CNS): 3.91 µM
TGI (SNB-19 CNS): > 10.2 µM
TGI (SNB-75 CNS): > 11 µM
GI50 (SR leukemia): 17.1 µM
TGI (SR leukemia): > 40.5 µM
TGI (SW-620 colon): > 16.5 µM
TGI (T-47D breast): > 22.9 µM
GI50 (TK-10 renal): > 8 µM
TGI (TK-10 renal): > 37.1 µM
TGI (U251 CNS): > 11.9 µM
TGI (UACC-257 melanoma): > 12.7 µM
TGI (UACC-62 melanoma): > 14.6 µM
TGI (UO-31 renal): > 14.8 µM
